For six molecules, kinact/KI results are on record in US5952321A, “Substituted azetidinones as anti-inflammatory and antidegenerative agents” (Merck & Co., Inc., priority 1996, dated 1999).

Test [1] addresses T1, Human Polymorphonuclear Leukocyte Elastase (Homo sapiens, UniProt P08246).
T1 sequence (P08246 30-267): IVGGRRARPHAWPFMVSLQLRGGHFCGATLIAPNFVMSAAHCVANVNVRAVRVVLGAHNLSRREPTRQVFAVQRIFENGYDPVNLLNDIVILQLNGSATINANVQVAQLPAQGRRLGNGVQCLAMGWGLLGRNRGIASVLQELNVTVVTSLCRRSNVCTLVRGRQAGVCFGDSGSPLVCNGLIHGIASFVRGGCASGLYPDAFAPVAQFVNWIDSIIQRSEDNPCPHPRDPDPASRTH
Put plainly: Inhibition of human polymorphonuclear leukocyte elastase via hydrolysis of Boc-AAPAN or Boc-AAPVN. It counts as biochemical. To be noted: second order rate constant for inactivation of the enzyme, read-out: Kobs /[I]. Put shortly:
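Crude human PMN extract was added to 0.2 mM Boc-AAPAN or Boc-AAPVN substrate solution in 0.05 M TES pH 7.5 containing inhibitor in DMSO; extract volume was adjusted per batch activity. Hydrolysis was followed as ΔOD/min at 410 mμ, after a pre-check for spontaneous hydrolysis. Values are ID50 (μg/ml, 50% inhibition at 2 min), Ki (μM) or kobs/I.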

Another test concerns the target T2, HUMAN PROTEINASE 3 (Homo sapiens, UniProt P24158).
T2 sequence (P24158 28-256): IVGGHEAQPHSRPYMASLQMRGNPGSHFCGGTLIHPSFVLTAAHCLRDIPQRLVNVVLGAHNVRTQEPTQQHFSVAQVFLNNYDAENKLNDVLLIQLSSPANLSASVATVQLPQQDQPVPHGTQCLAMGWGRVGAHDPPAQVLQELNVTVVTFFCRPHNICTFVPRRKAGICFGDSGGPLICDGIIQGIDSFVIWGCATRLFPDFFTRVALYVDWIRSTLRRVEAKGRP
Put plainly: Inhibition of PR3 catalyzed hydrolysis of MeO-Succ-AAPV-pNA. Particulars: Table IV; 45 mM TES pH 7.5, 450 mM NaCl, 10% DMSO; 0.2 mM MeO-succ-AAPV-pNA; read-out: SORC (second order rate constant, kobs /I). The test is classed as biochemical. On the procedure: The PR3 catalyzed hydrolysis of MeO-Succ-AAPV-pNA was measured in a spectrophotometer monitoring absorbance at 410 nm. The enzymatic activity was determined in 45 mM TES at pH 7.5, 450 mM NaCl and 10% DMSO. The data were fit by non-linear regression to equation 1 to obtain the initial rates. The nonlinear progress curves observed with time dependent inhibitors were fit to equation 2 to obtain the first order rate constant Kobs. Results were expressed as kobs /I which is the second order rate constant (SORC) in per mole per second for inactivation of the enzyme.
Y=vs *x+[(vo -vs) (1-e^(-K.spsb.o^*x))/Ko
Kinetic constants for the inhibition of PR3 catalyzed hydrolysis of 0.2 mM MeO-succ-AAPV-pNA were determined by varying the concentration of inhibitor present in the reaction vessel.

Where two headings read alike, the source gives them in different places.

Take `CCC[C@@H](NC(=O)N1C(=O)C(CC)(CC)[C@@H]1Oc1ccc(C(C)N(C)CCOC)cc1)c1ccc2c(c1)OCO2` (stereo partly shown): the kinact/KI in test [1] (pH 7.5, Table III) stood at 1.3e+06 M⁻¹ s⁻¹; on HUMAN PROTEINASE 3, 31000 M⁻¹ s⁻¹.
Regarding `CCC[C@@H](NC(=O)N1C(=O)C(CC)(CC)[C@@H]1Oc1ccc(CN(CC)CCOC(=O)N(C)C)cc1)c1ccc(C)cc1` [R4=Et; R5=CH2 CH2 OCONMe2; R6=H], the kinact/KI in test [1] (pH 7.5, Table I) was 1.4e+06 M⁻¹ s⁻¹.
Consider `CCC[C@@H](NC(=O)N1C(=O)C(CC)(CC)[C@@H]1Oc1ccc(CN(C)CCOC)cc1)c1ccc(OCC)cc1`, for which the kinact/KI in test [1] (pH 7.5, Table III) is 1.3e+06 M⁻¹ s⁻¹.
Turning to `CCC[C@@H](NC(=O)N1C(=O)C(CC)(CC)[C@@H]1Oc1ccc(C(COC)N(CCC)CCC)cc1)c1ccc(C)cc1` (stereo partly drawn) [R4=n-Pr; R5=n-Pr; R6=CH2 OMe, 3,3-Diethyl-1-[(R)-α-(n-propyl)-4-(methyl)benzylaminocarbonyl]-4-(S)-[4-{1-(RS)-(di-n-propyl)-2-methoxyethyl}phenoxy]azetidin-2-one], in test [1] (pH 7.5, Table I), the kinact/KI came out at 1e+06 M⁻¹ s⁻¹.
Still for that read-out and setting: the result for `CCC[C@@H](NC(=O)N1C(=O)C(CC)(CC)[C@@H]1Oc1ccc(CN(C)CC[S+]([O-])CC)cc1)c1ccc(C)cc1` (stereo partly drawn) [R4=Me; R5=CH2 CH2 SOEt; R6=H, (4S)-3,3-Diethyl-1-[(R)-α-n-propyl-(4-methyl)benzylaminocarbonyl]-4-[(4-((2-thioethyl)ethyl)methylaminomethyl)phenoxy]azetidin-2-one, S-oxide] reads 1.4e+06 M⁻¹ s⁻¹.
As for `CCC[C@@H](NC(=O)N1C(=O)C(CC)(CC)[C@@H]1Oc1ccc(C(COC)N(C)CCC)cc1)c1ccc2c(c1)OCO2` (mixture of isomers) [3,3-Diethyl-1-[(R)-α-(n-propyl)-(3,4-dioxomethylene)benzylaminocarbonyl]-4-(S)-[4-{1-(RS)-(N-(n-propyl)-N-(methyl)amino)-2-methoxyethyl}phenoxy]azetidin-2-one], in test [1] (pH 7.5, Table III), the kinact/KI is 1.8e+06 M⁻¹ s⁻¹.
